From the NIST ThermoML archive (doi:10.1021/acs.jced.5b00802)

Assays:
[1] = xn = mol fraction of the nth substance listed; details: 100 kPa, Liquid; for speed of sound: Frequency=3 MHz, Sing-around technique in a fixed-path interferometer; for mass density: Vibrating tube method
[2] = refractive index (Na D-line) (dimensionless); xn = mol fraction of the nth substance listed; details: 100 kPa, Liquid, Standard Abbe refractometry

CCCCN [1-butanamine] + CN(C)C=O
Details	mass density, [1] [kg/m3]	refractive index, [2]	speed of sound, [1] [m/s]
293.15 K, x2 = 0.0599	747.39	1.40222	1277.7
293.15 K, x2 = 0.1056	755.445	1.40348	1285
293.15 K, x2 = 0.1591	765.035	1.40498	1293.8
293.15 K, x2 = 0.201	–	1.40619	–
293.15 K, x2 = 0.2505	782.005	1.4076	1309.6
293.15 K, x2 = 0.3017	791.811	1.40911	1318.9
293.15 K, x2 = 0.3583	802.88	1.41079	1329.6
293.15 K, x2 = 0.3992	811.114	1.412	1337.8
293.15 K, x2 = 0.4401	–	1.41322	–
293.15 K, x2 = 0.5059	833.13	1.41521	1359.6
293.15 K, x2 = 0.5483	842.154	–	1368.9
293.15 K, x2 = 0.6043	–	1.41829	–
293.15 K, x2 = 0.6569	866.102	1.41992	1393.7
293.15 K, x2 = 0.6999	875.844	1.42126	1404
293.15 K, x2 = 0.7537	888.314	1.42292	1416.7
293.15 K, x2 = 0.8036	900.101	1.42448	1429
293.15 K, x2 = 0.8579	913.315	1.42618	1442.3
293.15 K, x2 = 0.9048	924.751	1.42763	1453.7
293.15 K, x2 = 0.9546	937.212	1.42915	1465.6
298.15 K, x2 = 0.0575	742.224	1.39946	1255.4
298.15 K, x2 = 0.1092	751.333	1.40093	1263.9
298.15 K, x2 = 0.1519	759.015	1.40215	1271.1
298.15 K, x2 = 0.2043	768.674	1.40367	1280.1
298.15 K, x2 = 0.2448	776.215	1.40485	1287.4
298.15 K, x2 = 0.309	788.51	1.4068	1299.3
298.15 K, x2 = 0.3558	797.705	1.4082	1308.4
298.15 K, x2 = 0.3986	806.285	–	1317
298.15 K, x2 = 0.4381	814.268	–	1324.9
298.15 K, x2 = 0.5028	827.736	1.41274	1338.6
298.15 K, x2 = 0.6005	848.795	1.41578	1360.6
298.15 K, x2 = 0.6608	–	1.41769	–
298.15 K, x2 = 0.6934	869.781	1.41871	1382.5
298.15 K, x2 = 0.7572	884.516	1.42076	1398
298.15 K, x2 = 0.8056	895.958	1.4223	1410
298.15 K, x2 = 0.8546	–	1.42383	–
298.15 K, x2 = 0.9076	920.837	1.42553	1435.1
298.15 K, x2 = 0.9553	932.723	1.42705	1446.6
303.15 K, x2 = 0.0505	736.213	1.39644	1233
303.15 K, x2 = 0.1477	753.539	1.39927	1249.4
303.15 K, x2 = 0.2019	763.466	1.40087	1259
303.15 K, x2 = 0.241	770.708	1.40209	1266
303.15 K, x2 = 0.3024	782.423	1.40392	1277.5
303.15 K, x2 = 0.3558	792.882	1.40552	1287.8
303.15 K, x2 = 0.3992	–	1.40686	–
303.15 K, x2 = 0.4358	808.96	1.40802	1304.1
303.15 K, x2 = 0.5114	824.673	1.41041	1320.3
303.15 K, x2 = 0.5281	828.281	1.41094	1324
303.15 K, x2 = 0.6056	845.104	1.41337	1341.6
303.15 K, x2 = 0.6574	–	1.41502	–
303.15 K, x2 = 0.696	865.473	1.41625	1363.2
303.15 K, x2 = 0.7558	879.286	1.4182	1377.7
303.15 K, x2 = 0.8006	889.962	1.41964	1389
303.15 K, x2 = 0.8544	902.88	1.42138	1402.3
303.15 K, x2 = 0.8998	914.033	1.42282	1413.7
303.15 K, x2 = 0.9466	925.732	1.42431	1425.2

CCCNCCC [dipropylamine] + CN(C)C=O
Details	mass density, [1] [kg/m3]	refractive index, [2]	speed of sound, [1] [m/s]
293.15 K, x2 = 0.06	745.894	1.40543	1218.2
293.15 K, x2 = 0.1071	752.141	–	1225
293.15 K, x2 = 0.1556	–	1.40725	–
293.15 K, x2 = 0.156	758.933	–	1232.9
293.15 K, x2 = 0.1975	764.87	–	1239.3
293.15 K, x2 = 0.249	772.54	–	1248.1
293.15 K, x2 = 0.2614	–	1.40952	–
293.15 K, x2 = 0.3099	782.194	–	1259.4
293.15 K, x2 = 0.3463	788.151	1.4114	1266.2
293.15 K, x2 = 0.3985	797.199	1.41266	1276.9
293.15 K, x2 = 0.448	806.192	–	1287.6
293.15 K, x2 = 0.4554	–	1.41402	–
293.15 K, x2 = 0.4974	815.656	–	1299.2
293.15 K, x2 = 0.5487	825.989	1.41645	1312
293.15 K, x2 = 0.6018	–	1.41789	–
293.15 K, x2 = 0.6562	849.651	–	1342.1
293.15 K, x2 = 0.7033	–	1.42079	–
293.15 K, x2 = 0.7514	873.097	–	1373.4
293.15 K, x2 = 0.8216	892.212	1.42444	1399.8
293.15 K, x2 = 0.8501	900.523	–	1411.2
293.15 K, x2 = 0.8844	–	1.42653	–
293.15 K, x2 = 0.9025	916.508	–	1433.3
293.15 K, x2 = 0.9486	931.283	1.42882	1453.4
298.15 K, x2 = 0.0626	741.577	1.40259	1196.9
298.15 K, x2 = 0.1083	747.697	1.40358	1204
298.15 K, x2 = 0.1544	754.025	1.40443	1211.2
298.15 K, x2 = 0.2541	768.732	1.40662	1228.1
298.15 K, x2 = 0.3148	778.293	1.40796	1239.3
298.15 K, x2 = 0.3609	786.012	1.40908	1248.3
298.15 K, x2 = 0.4077	794.223	1.41017	1258.2
298.15 K, x2 = 0.4966	810.8	1.41247	1278.5
298.15 K, x2 = 0.5386	819.199	–	1288.9
298.15 K, x2 = 0.6082	833.997	–	1307.9
298.15 K, x2 = 0.6527	844.084	1.41673	1321.1
298.15 K, x2 = 0.7477	867.448	1.4196	1352.4
298.15 K, x2 = 0.8063	883.226	1.42147	1374
298.15 K, x2 = 0.902	911.457	1.42478	1413.1
298.15 K, x2 = 0.9482	926.367	1.42645	1433.5
303.15 K, x2 = 0.0453	734.885	1.39971	1174
303.15 K, x2 = 0.1034	742.55	1.40091	1183
303.15 K, x2 = 0.1963	755.529	1.40293	1198
303.15 K, x2 = 0.2582	764.775	1.40419	1208.8
303.15 K, x2 = 0.3559	780.614	1.40647	1227.6
303.15 K, x2 = 0.4099	790.03	1.40779	1239
303.15 K, x2 = 0.4565	798.539	–	1249.4
303.15 K, x2 = 0.5415	815.193	–	1270.3
303.15 K, x2 = 0.6016	827.909	1.41295	1286.6
303.15 K, x2 = 0.6517	839.209	–	1301.4
303.15 K, x2 = 0.7502	863.388	1.41745	1334
303.15 K, x2 = 0.8498	890.941	1.4207	1372
303.15 K, x2 = 0.9	906.165	1.42246	1393.2
303.15 K, x2 = 0.9498	922.203	1.42417	1415.2
